The target in one test is JAK1 (Homo sapiens (Human), UniProt P23458). Description: Jak Biochemical HTRF Assay, JAK1. The conditions noted are these: HTRF biochemical assay, GST-tagged catalytic domain; top concentration tested […]; read-out: JAK1 IC50. An excerpt:
(§1) Jak Biochemical HTRF Assay Protocol
(§2) Subsequent reagent additions employed an Agilent Bravo.

The next test has as its target JAK2 (Homo sapiens (Human), UniProt O60674). Description: Jak Biochemical HTRF Assay, JAK2. The conditions noted are these: HTRF biochemical assay, GST-tagged catalytic domain; top concentration tested […].
Excerpt: as §1, §2
(Time-resolved FRET reads energy transfer from a long-lived donor to a nearby acceptor.)

pIC50: −log10 of the molar value.

As usually defined, the pIC50 is the negative decadic logarithm of the IC50, by convention in mol/L.

Chain of JAK2 (O60674 849-1124): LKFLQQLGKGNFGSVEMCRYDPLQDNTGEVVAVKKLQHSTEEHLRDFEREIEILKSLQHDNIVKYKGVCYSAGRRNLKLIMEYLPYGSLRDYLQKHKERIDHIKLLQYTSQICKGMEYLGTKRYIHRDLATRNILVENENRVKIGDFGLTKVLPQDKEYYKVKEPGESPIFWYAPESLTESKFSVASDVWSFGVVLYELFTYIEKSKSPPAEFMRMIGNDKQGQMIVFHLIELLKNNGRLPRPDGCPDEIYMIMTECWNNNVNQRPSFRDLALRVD
Chain of JAK1 (P23458 875-1153): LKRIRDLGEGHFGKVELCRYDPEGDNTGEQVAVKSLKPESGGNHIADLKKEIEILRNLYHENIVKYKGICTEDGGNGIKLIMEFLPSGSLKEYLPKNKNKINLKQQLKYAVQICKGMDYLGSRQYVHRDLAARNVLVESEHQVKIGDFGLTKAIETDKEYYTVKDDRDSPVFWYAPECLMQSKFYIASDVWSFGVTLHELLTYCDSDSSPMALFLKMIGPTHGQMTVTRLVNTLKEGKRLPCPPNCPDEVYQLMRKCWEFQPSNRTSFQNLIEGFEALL

For the molecule `CC(C#N)C1(n2cc(C(N)=O)c(Nc3ccc(F)cc3)n2)CCN(C(=O)OC(C)(C)C)CC1` (centres unmarked) [Example 5-1, tert-Butyl 4-(4-carbamoyl-3-((4-fluorophenyl)amino)-1H-pyrazol-1-yl)-4-(1-cyanoethyl)piperidine-1-carboxylate], the pIC50 was 7.47 at JAK1 and 6.79 at JAK2.
As to `N#CCC1(n2cc(C(N)=O)c(Nc3ccnc(F)c3)n2)CCN(Cc2cocn2)CC1` [Example 22-26, 1-[4-(cyanomethyl)-1-(1,3-oxazol-4-ylmethyl)piperidin-4-yl]-3-[(2-fluoropyridin-4-yl)amino]-1H-pyrazole-4-carboxamide], the pIC50 is 8.22 at JAK1 and 6.93 against JAK2.
Turning to `CCOc1ccc(N2CCC(CC#N)(n3cc(C(N)=O)c(Nc4ccc(F)cc4)n3)CC2)cn1` [Example 3-36, 1-[4-(cyanomethyl)-1-(6-ethoxypyridin-3-yl)piperidin-4-yl]-3-[(4-fluorophenyl)amino]-1H-pyrazole-4-carboxamide], the figures for the pIC50 on JAK1 and at JAK2 were 8.52 and 7.34, respectively.
On to `N#CCC1(n2cc(C(N)=O)c(Nc3ccc(F)cc3)n2)CCC(NCc2ccccc2)CC1` (stereo not drawn) [Example 40-92, Cis or trans 1-[4-(benzylamino)-1-(cyanomethyl)cyclohexyl]-3-[(4-fluorophenyl)amino]-1H-pyrazole-4-carboxamide], for which the pIC50 is 10.40 at JAK1 and 9.70 against JAK2.
Taken in the same sequence, the figures for `CC(C)c1ccc(NC(=O)N2CC(CC#N)(n3cc(C(N)=O)c(Nc4ccccc4)n3)C2)cc1` [Example 38-7] were 8.30 and 7.10.
Consider `N#CCC1(n2cc(C(N)=O)c(Nc3ccccc3)n2)CCN(Cc2c(F)ccc(F)c2F)CC1` [Example 21-26, 1-[4-(cyanomethyl)-1-(2,3,6-trifluorobenzyl)piperidin-4-yl]-3-(phenylamino)-1H-pyrazole-4-carboxamide], for which the pIC50 at JAK1 was 9.15; at JAK2, 7.96.
Turning to `N#CCC1(n2cc(C(N)=O)c(Nc3ccnc(F)c3)n2)CCC(NCc2cccc(F)c2)CC1` (stereo not drawn) [Example 41-19, Cis or trans 1-{1-(cyanomethyl)-4-[(3-fluorobenzyl)amino]cyclohexyl}-3-[(2-fluoropyridin-4-yl)amino]-1H-pyrazole-4-carboxamide], the negative-log IC50 (pIC50) on JAK1 was 9.52; on JAK2 it was 8.05.
Taken in the same sequence, the figures for `N#CCC1(n2cc(C(N)=O)c(Nc3ccc(F)cc3)n2)CCN(C(=O)OCCC(F)(F)F)CC1` [Example 30-45, 3,3,3-Trifluoropropyl 4-{4-carbamoyl-3-[(4-fluorophenyl)amino]-1H-pyrazol-1-yl}-4-(cyanomethyl)piperidine-1-carboxylate] were 8.52 and 7.01.
Taken in the same sequence, the figures for `N#CCC1(n2cc(C(N)=O)c(Nc3ccc(F)cc3)n2)CCN(C(=O)OCC2(O)CC2)CC1` [Example 30-13, (1-hydroxycyclopropyl)methyl 4-(4-carbamoyl-3-(4-fluorophenylamino)-1H-pyrazol-1-yl)-4-(cyanomethyl)piperidine-1-carboxylate] were 9.05 and 7.70.
The matching figures for `N#CCC1(n2cc(C(N)=O)c(Nc3ccccc3)n2)CCN(Cc2cccc3ccccc23)CC1` [Example 21-8, 1-[4-(cyanomethyl)-1-(naphthalene-1-ylmethyl)piperidin-4-yl]-3-(phenylamino)-1H-pyrazole-4-carboxamide]: 7.05 and 5.89.
On to `N#CCC1(n2cc(C(N)=O)c(Nc3ccccc3)n2)CCN(C(=O)c2cc3ccccc3[nH]2)CC1` [Example 34-22, 1-[4-(cyanomethyl)-1-(1H-indol-2-ylcarbonyl)piperidin-4-yl]-3-(phenylamino)-1H-pyrazole-4-carboxamide], for which the pIC50 is 8.22 at JAK1 and 6.75 against JAK2.
As for `N#CCC1(n2cc(C(N)=O)c(Nc3ccccc3)n2)CCN(Cc2cccc(O)c2)CC1` [Example 21-11, 1-[4-(cyanomethyl)-1-(3-hydroxybenzyl)piperidin-4-yl]-3-(phenylamino)-1H-pyrazole-4-carboxamide], the pIC50 at JAK1 was 9.52; on JAK2 it was 8.22.
Turning to `N#CCC1(n2cc(C(N)=O)c(Nc3ccccc3)n2)CCN(S(=O)(=O)c2cccc(Cl)c2)CC1` [Example 37-11, 1-{1-[(3-chlorophenyl)sulfonyl]-4-(cyanomethyl)piperidin-4-yl}-3-(phenylamino)-1H-pyrazole-4-carboxamide], the pIC50 on JAK1 was 9.22; on JAK2, 8.70.
Taken in the same sequence, the figures for `N#CCC1(n2cc(C(N)=O)c(Nc3ccc(S(=O)(=O)C(F)(F)F)cc3)n2)CCN(C(=O)Nc2ccc(C#N)cc2)CC1` [Example 38-45, 4-(4-carbamoyl-3-(4-(trifluoromethylsulfonyl)phenylamino)-1H-pyrazol-1-yl)-4-(cyanomethyl)-N-(4-cyanophenyl)piperidine-1-carboxamide] were 10.00 and 9.30.
The matching figures for `N#CCC1(n2cc(C(N)=O)c(Nc3ccnc(F)c3)n2)CCN(C(=O)CC2CC2)CC1` [Example 34-45, 1-[4-(cyanomethyl)-1-(cyclopropylacetyl)piperidin-4-yl]-3-[(2-fluoropyridin-4-yl)amino]-1H-pyrazole-4-carboxamide]: 9.00 and 7.34.
Taken in the same sequence, the figures for `Cc1cccc(C)c1NC(=O)N1CC(CC#N)(n2cc(C(N)=O)c(Nc3ccccc3)n2)C1` [Example 38-31, 1-{3-(cyanomethyl)-1-[(2,6-dimethylphenyl)carbamoyl]azetidin-3-yl}-3-(phenylamino)-1H-pyrazole-4-carboxamide] were 7.48 and 6.18.
`C[C@@H]1C[C@](CC#N)(n2cc(C(N)=O)c(Nc3ccccc3)n2)CCN1C(=O)OC(C)(C)C` (racemic) [Example 2-11, tert-butyl (2R,4R and 2S,4S)-4-[4-carbamoyl-3-(phenylamino)-1H-pyrazol-1-yl]-4-(cyanomethyl)-2-methylpiperidine-1-carboxylate]: the values for the pIC50 at JAK1 and against JAK2 were 7.54 and 6.21, respectively.
The matching figures for `CN1CCC(OC(=O)N2CCC(CC#N)(n3cc(C(N)=O)c(Nc4ccccc4)n3)CC2)CC1` [Example 30-42, 1-methylpiperidin-4-yl 4-[4-carbamoyl-3-(phenylamino)-1H-pyrazol-l-yl]-4-(cyanomethyl)piperidine-1-carboxylate]: 7.39 and 6.10.
Taken in the same sequence, the figures for `COCCCOC(=O)N1CC(CC#N)(n2cc(C(N)=O)c(Nc3ccccc3)n2)C1` [Example 30-61, 3-methoxypropyl 3-[4-carbamoyl-3-(phenylamino)-1H-pyrazol-1-yl]-3-(cyanomethyl)azetidine-1-carboxylate] were 7.43 and 6.22.
The matching figures for `N#CCC1(n2cc(C(N)=O)c(Nc3ccccc3)n2)CN(C(=O)Nc2cc(F)ccc2F)C1` [Example 38-10, 1-{3-(cyanomethyl)-1-[(2,5-difluorophenyl)carbamoyl]azetidin-3-yl}-3-(phenylamino)-1H-pyrazole-4-carboxamide]: 8.30 and 6.80.
With `N#CCC1(n2cc(C(N)=O)c(Nc3ccccc3)n2)CCN(S(=O)(=O)C2CC2)CC1` [Example 37-15, 1-[4-(cyanomethyl)-1-(cyclopropylsulfonyl)piperidin-4-yl]-3-(phenylamino)-1H-pyrazole-4-carboxamide], the pIC50 at JAK1 is 9.40; against JAK2, 8.52.
The matching figures for `N#CCC1(n2cc(C(N)=O)c(Nc3ccc(S(=O)(=O)C(F)F)cc3)n2)CCC(NCC(F)F)CC1` (stereo not drawn) [Example 40-84, Cis or trans 1-{1-(cyanomethyl)-4-[(2,2-difluoroethyl)amino]cyclohexyl}-3-({4-[(difluoromethyl)sulfonyl]phenyl}amino)-1H-pyrazole-4-carboxamide]: 10.40 and 8.52.
Taken in the same sequence, the figures for `N#CCC1(n2cc(C(N)=O)c(Nc3ccc(F)cc3)n2)CCN(Cc2ccccc2)CC1` [Example 22-7, 1-[1-benzyl-4-(cyanomethyl)piperidin-4-yl]-3-[(4-fluorophenyl)amino]-1H-pyrazole-4-carboxamide] were 9.52 and 7.89.
Turning to `N#CCC1(n2cc(C(N)=O)c(Nc3ccc(F)cc3)n2)CCC(NCCF)CC1` (stereo not drawn) [Example 40-79, Cis or trans 1-{1-(cyanomethyl)-4-[(2-fluoroethyl)amino]cyclohexyl}-3-[(4-fluorophenyl)amino]-1H-pyrazole-4-carboxamide], the figures for the pIC50 on JAK1 and against JAK2 were 8.10 and 6.88, respectively.
Turning to `N#CCC1(n2cc(C(N)=O)c(Nc3ccnc(F)c3)n2)CCN(Cc2cncc(F)c2)CC1` [Example 22-38, 1-{4-(cyanomethyl)-1-[(5-fluoropyridin-3-yl)methyl]piperidin-4-yl}-3-[(2-fluoropyridin-4-yl)amino]-1H-pyrazole-4-carboxamide], the pIC50 is 9.70 on JAK1 and 8.30 at JAK2.
The matching figures for `N#CCC1(n2cc(C(N)=O)c(Nc3ccc(F)cc3)n2)CCN(c2ccncc2)CC1` [Example 3-46, 1-[4-(cyanomethyl)-1-pyridin-4-ylpiperidin-4-yl]-3-[(4-fluorophenyl)amino]-1H-pyrazole-4-carboxamide]: 8.52 and 7.11.
For the molecule `N#CCC1(n2cc(C(N)=O)c(Nc3ccnc(F)c3)n2)CCC(NCc2cccc(Cl)c2)CC1` (stereo not drawn) [Example 41-23, Cis or trans 1-{4-[(3-chlorobenzyl)amino]-1-(cyanomethyl)cyclohexyl}-3-[(2-fluoropyridin-4-yl)amino]-1H-pyrazole-4-carboxamide], the pIC50 was 7.34 at JAK1 and 5.84 on JAK2.
Take `Cn1cnc(S(=O)(=O)N2CCC(CC#N)(n3cc(C(N)=O)c(Nc4ccccc4)n3)CC2)c1` [Example 37-7, 1-{4-(cyanomethyl)-1-[(1-methyl-1H-imidazol-4-yl)sulfonyl]piperidin-4-yl}-3-(phenylamino)-1H-pyrazole-4-carboxamide]: the figures for the pIC50 on JAK1 and against JAK2 were 8.70 and 8.05, respectively.

Source of the values: patent US9328099B2, “Cyanomethylpyrazole carboxamides as janus kinase inhibitors” (Merck Sharp & Dohme Corp., priority 2011, dated 2016).
